The text below walks through data of US4308168A, “Vapor phase corrosion inhibitor compositions and method of inhibiting corrosion using said compositions” (priority 1978, dated 1981).

Some results are limits rather than exact numbers.

The nature of series [1]: Rust formation on polished carbon steel at a distance of 25 cm in closed vessel (vapor phase, condensed water). Set-up: key: The amount of the rust is less than that in the blank test.; x: The amount of the rust is the same as that in the blank test. The following applies: 20 mg sample, 5-liter vessel, 20°±2° C., observed 5 hours after water condensation. The method, then: A laboratory dish containing 20 milligrams of each sample obtained in the preceding Examples was added to a 5-liter glass vessel containing 50 milliliters of 30% aqueous solution of glycerin.
A piece of polished carbon steel (JIS G-4051) was arranged at the upper part of the vessel, at a distance of 25 centimeters from the dish. After keeping the vessel at 20°±2° C. during 1-5 days, water droplets were condensed on a surface of steel from moisture by pouring cold water into an aluminum pipe, and after 5 hours the presence of the rust on the steel piece was observed.

Series [2] in a line: Oral acute toxicity, LD50 in rats. The conditions noted are these: rat, in vivo, rats weighing 90 grams, fasted 24 hours, one week. The method, then:
Specifics of the chemicals listed in Table 2 were administered orally in various concentration to respective groups of 10 rats weighing 90 grams after fasting for 24 hours.
After oral administration of the chemical, the rats were fed with a sufficient amount of a diet and water and kept in a thermo-hygrostat at a temperature of 25° C. and humidity of 60% during one week to determine the LD50.

The conditions of series [3]: prior-art inhibitors; mineral oil; cited from earlier work.
A short description of series [4]: Solubility in water.
The conditions of series [5]: ambient temperatures; cited from earlier work.

With `CCOC(=O)C(C)N` (stereo not drawn) [α-alanine ethyl ester], in series [1], the “presence of rust on steel piece, after leaving for 1 day” value (shortened to “presence of rust … for 1 day”) is “o” and the “presence of rust on steel piece, after leaving for 5 days” value (“presence of rust … for 5 days” for short) is “o”. Further, in series [2], the LD50 (usually the dose expected to kill half of the subjects tested) at 168 h is more than 5000 mg/kg.
As to `C1CCC(NC2CCCCC2)CC1` [FERROGUARD], the solubility in oil entry in series [3] is reported as “only slightly soluble in mineral oil”.
Regarding `CNCC(=O)OC(C)(C)C` [N-methylglycine-tert-butyl ester, N-methylglycine-tert-butylester], in series [1], the “presence of rust … for 1 day” value is “o” and the “presence of rust … for 5 days” value is “o”.
For the compound `CC(C)(C)OC(=O)[C@@H]1CCCN1` [proline-tert-butyl ester, proline-tert-butylester], in series [1], the “presence of rust … for 1 day” value is “o” and the “presence of rust … for 5 days” value is “o”. In series [2], this compound returned an LD50 at 168 h of more than 5000 mg/kg.
As for `CC(C)(C)OC(=O)CN`, in series [1], the “presence of rust … for 1 day” value was “o” and the “presence of rust … for 5 days” value was “o”.
`C1CCC(NC2CCCCC2)CC1` [dicyclohexylamine, reference compound]: the LD50 at 168 h in series [2] is 500 mg/kg.
Take `CC(C)(C)OC(=O)[C@@H](N)Cc1ccccc1` [phenylalanine-tert-butyl ester, phenylalanine-tert-butylester]: in series [1], the “presence of rust … for 1 day” value is reported as “o” and the “presence of rust … for 5 days” value is listed as “o”.
`CC(C)(C)OC(=O)CCN` [β-alanine-tert-butyl ester, β-alanine-tert-butylester]: in series [1], the “presence of rust … for 1 day” value is given as “o” and the “presence of rust … for 5 days” value is on record as “o”. The solubility in water entry in series [4] was “wholly soluble in water”.
Consider `C1CCC(NC2CCCCC2)CC1.O=[N+]([O-])O` [DICHAN, dicyclohexylamine nitrate, reference compound], for which, in series [1], the “presence of rust … for 1 day” value is listed as “x” and the “presence of rust … for 5 days” value is “x”. In addition, the “distance of diffusion of gas” value in series [5] was “about 30 cm”. Besides, the solubility in oil result in series [3] is on record as “no solubility in oil”. The compound also yielded an LD50 at 168 h in series [2] of 200 mg/kg.
As for `CC(N)C(=O)OC(C)(C)C` (stereo not drawn) [α-alanine-tert-butyl ester, α-alanine-tert-butylester], in series [1], the “presence of rust … for 1 day” value is “o” and the “presence of rust … for 5 days” value is “o”. Besides, the solubility in water entry in series [4] is listed as “wholly soluble in water”.
